Usually EC50 stands for the concentration at which the effect is half-maximal.

Structures are written as SMILES. A value given as a limit tells only on which side of the number the result lay.

In the test the test system is recombinant NL4-3 virus (Renilla luciferase in nef, Gag P373S). The test is described as follows: HIV Cell Culture Assay (luciferase reporter virus in MT-2 cells). It counts as cell-based. Particulars: NL43, read-out: EC50 Group. Put shortly: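 Cells grown in serum-supplemented RPMI were exposed to graded inhibitor concentrations during a 4-5 day infection. Antiviral effect was then derived from luminescence after adding a combined lysis and dual-luciferase substrate mixture to each well.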
`C=C(C)[C@@H]1CC[C@]2(C(=O)NCC(O)CN)CC[C@]3(C)[C@H](CC[C@@H]4[C@@]5(C)CC=C(c6ccc(C(=O)O)cc6)C(C)(C)[C@@H]5CC[C@]43C)[C@@H]12` (stereo partly drawn) [Example 64, 4-((1R,3aS,5aR,5bR,7aR,11aS,11bR,13aR,13bR)-3a-(3-amino-2-hydroxypropylcarbamoyl)-5a,5b,8,8,11a-pentamethyl-1-(prop-1-en-2-yl)-2,3,3a,4,5,5a,5b,6,7,7a,8,11,11a,11b,12,13,13a,13b-octadecahydro-1H-cyclopenta[a]chrysen-9-yl)benzoic acid]: the EC50 is under 100 nM.

In the case of `C=C(C)[C@@H]1CC[C@]2(C(=O)NCC3CCCN3CC)CC[C@]3(C)[C@H](CC[C@@H]4[C@@]5(C)CC=C(c6ccc(C(=O)O)cc6)C(C)(C)[C@@H]5CC[C@]43C)[C@@H]12` (stereo partly drawn) [Example 39, 4-((1R,3aS,5aR,5bR,7aR,11aS,11bR,13aR,13bR)-3a-((1-ethylpyrrolidin-2-yl)methylcarbamoyl)-5a,5b,8,8,11a-pentamethyl-1-(prop-1-en-2-yl)-2,3,3a,4,5,5a,5b,6,7,7a,8,11,11a,11b,12,13,13a,13b-octadecahydro-1H-cyclopenta[a]chrysen-9-yl)benzoic acid], the half-maximal effective concentration (EC50) was under 100 nM.

Take `CN(C)CCNC(=O)[C@]12CCC(C)(C)C[C@H]1C1=CC[C@@H]3[C@@]4(C)CC=C(c5ccc(C(=O)O)cc5)C(C)(C)[C@@H]4CC[C@@]3(C)[C@]1(C)CC2` [Example B1, 4-((4aR,6aR,6bS,8aS,12aS,14aR,14bS)-8a-(2-(dimethylamino)ethylcarbamoyl)-4,4,6a,6b,11,11,14b-heptamethyl-1,4,4a,5,6,6a,6b,7,8,8a,9,10,11,12,12a,14,14a,14b-octadecahydropicen-3-yl)benzoic acid]: the EC50 is under 100 nM.

Consider `C=C(C)[C@@H]1CC[C@]2(C(=O)NCCCN(CC)CCCC(=O)O)CC[C@]3(C)[C@H](CC[C@@H]4[C@@]5(C)CC=C(c6ccc(C(=O)O)cc6)C(C)(C)[C@@H]5CC[C@]43C)[C@@H]12` [Example 101, 4-((1R,3aS,5aR,5bR,7aR,11aS,11bR,13aR,13bR)-3a-(3-((3-carboxypropyl)(ethyl)amino)propylcarbamoyl)-5a,5b,8,8,11a-pentamethyl-1-(prop-1-en-2-yl)-2,3,3a,4,5,5a,5b,6,7,7a,8,11,11a,11b,12,13,13a,13b-octadecahydro-1H-cyclopenta[a]chrysen-9-yl)benzoic acid], for which the EC50 was under 100 nM.

With `C=C(C)[C@@H]1CC[C@]2(C(=O)NCCc3cccnc3)CC[C@]3(C)[C@H](CC[C@@H]4[C@@]5(C)CC=C(c6ccc(C(=O)O)cc6)C(C)(C)[C@@H]5CC[C@]43C)[C@@H]12` [Example 3, 4-((1R,3aS,5aR,5bR,7aR,11aS,11bR,13aR,13bR)-5a,5b,8,8,11a-pentamethyl-1-(prop-1-en-2-yl)-3a-(2-(pyridin-3-yl)ethylcarbamoyl)-2,3,3a,4,5,5a,5b,6,7,7a,8,11,11a,11b,12,13,13a,13b-octadecahydro-1H-cyclopenta[a]chrysen-9-yl)benzoic acid], the half-maximal effective concentration (EC50) was under 100 nM.

For the compound `C=C(C)[C@@H]1CC[C@]2(C(=O)NCc3ncc[nH]3)CC[C@]3(C)[C@H](CC[C@@H]4[C@@]5(C)CC=C(c6ccc(C(=O)O)cc6)C(C)(C)[C@@H]5CC[C@]43C)[C@@H]12` [Example 43], the EC50 is under 100 nM.

Turning to `C[C@H]1[C@H](C)CC[C@]2(C(=O)NCCN(C)C)CC[C@]3(C)C(=CC[C@@H]4[C@@]5(C)CC=C(c6ccc(C(=O)O)cc6)C(C)(C)[C@@H]5CC[C@]43C)[C@H]12` [Example A1, 4-((4aR,6aR,6bS,8aS,11R,12S,12aS,14aR,14bS)-8a-(2-(dimethylamino)ethylcarbamoyl)-4,4,6a,6b,11,12,14b-heptamethyl-1,4,4a,5,6,6a,6b,7,8,8a,9,10,11,12,12a,14,14a,14b-octadecahydropicen-3-yl)benzoic acid], the EC50 is under 100 nM.

Turning to `C=C(C)[C@@H]1CC[C@]2(C(=O)NCCCN)CC[C@]3(C)[C@H](CC[C@@H]4[C@@]5(C)CC=C(c6ccc(C(=O)O)cc6)C(C)(C)[C@@H]5CC[C@]43C)[C@@H]12` [Example 98, 4-((1R,3aS,5aR,5bR,7aR,11aS,11bR,13aR,13bR)-3a-(3-aminopropylcarbamoyl)-5a,5b,8,8,11a-pentamethyl-1-(prop-1-en-2-yl)-2,3,3a,4,5,5a,5b,6,7,7a,8,11,11a,11b,12,13,13a,13b-octadecahydro-1H-cyclopenta[a]chrysen-9-yl)benzoic acid], the EC50 is under 100 nM.

Regarding `C=C(C)[C@@H]1CC[C@]2(C(=O)NCCCN(CC)CCC(=O)O)CC[C@]3(C)[C@H](CC[C@@H]4[C@@]5(C)CC=C(c6ccc(C(=O)O)cc6)C(C)(C)[C@@H]5CC[C@]43C)[C@@H]12` [Example 99, 4-((1R,3aS,5aR,5bR,7aR,11aS,11bR,13aR,13bR)-3a-(3-((2-carboxyethyl)(ethyl)amino)propylcarbamoyl)-5a,5b,8,8,11a-pentamethyl-1-(prop-1-en-2-yl)-2,3,3a,4,5,5a,5b,6,7,7a,8,11,11a,11b,12,13,13a,13b-octadecahydro-1H-cyclopenta[a]chrysen-9-yl)benzoic acid], the EC50 was under 100 nM.

Regarding `C=C(C)[C@@H]1CC[C@]2(C(=O)NCCN3CCN(C(=O)OC(C)(C)C)CC3)CC[C@]3(C)[C@H](CC[C@@H]4[C@@]5(C)CC=C(c6ccc(C(=O)O)cc6)C(C)(C)[C@@H]5CC[C@]43C)[C@@H]12` [Example 37, 4-((1R,3aS,5aR,5bR,7aR,11aS,11bR,13aR,13bR)-3a-(2-(4-(tert-butoxycarbonyl)piperazin-1-yl)ethylcarbamoyl)-5a,5b,8,8,11a-pentamethyl-1-(prop-1-en-2-yl)-2,3,3a,4,5,5a,5b,6,7,7a,8,11,11a,11b,12,13,13a,13b-octadecahydro-1H-cyclopenta[a]chrysen-9-yl)benzoic acid], the EC50 was under 100 nM.

For `C=C(C)[C@@H]1CC[C@]2(C(=O)NCCN3CCS(=O)(=O)CC3)CC[C@]3(C)[C@H](CC[C@@H]4[C@@]5(C)CC=C(c6ccc(C(=O)O)cc6)C(C)(C)[C@@H]5CC[C@]43C)[C@@H]12` [Example 106, 4-((1R,3aS,5aR,5bR,7aR,11aS,11bR,13aR,13bR)-3a-((2-(1,1-dioxido-4-thiomorpholinyl)ethyl)carbamoyl)-1-isopropenyl-5a,5b,8,8,11a-pentamethyl-2,3,3a,4,5,5a,5b,6,7,7a,8,11,11a,11b,12,13,13a,13b-octadecahydro-1H-cyclopenta[a]chrysen-9-yl)benzoic acid], the 50% effective concentration (EC50) is under 100 nM.

Regarding `C=C(C)[C@@H]1CC[C@]2(C(=O)NCCN3CCCC3=O)CC[C@]3(C)[C@H](CC[C@@H]4[C@@]5(C)CC=C(c6ccc(C(=O)O)cc6)C(C)(C)[C@@H]5CC[C@]43C)[C@@H]12` [Example 46, 4-((1R,3aS,5aR,5bR,7aR,11aS,11bR,13aR,13bR)-5a,5b,8,8,11a-pentamethyl-3a-(2-(2-oxopyrrolidin-1-yl)ethylcarbamoyl)-1-(prop-1-en-2-yl)-2,3,3a,4,5,5a,5b,6,7,7a,8,11,11a,11b,12,13,13a,13b-octadecahydro-1H-cyclopenta[a]chrysen-9-yl)benzoic acid], the EC50 was under 100 nM.

The values are drawn from patent US8802661B2, “C-28 amides of modified C-3 betulinic acid derivatives as HIV maturation inhibitors” (priority 2010, dated 2014).
